pIC50: −log10 of the molar value.
Tests used:
Type in all cases: biochemical
FGFR1 = target: T1, FGFR1 (Homo sapiens, UniProt P11362); experiment: Z'-LYTE in vitro enzyme activity assay, FGFR1; conditions: 25 μM ATP, 60 minutes, room temperature; read-out: IC50 detected by Z'-LYTE, FGFR1
T1 construct: purchased Life technology
Summary of the method: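 Z′-LYTE FRET assay with 1 nM FGFR1, 2 μM Tyr4 peptide and 25 μM ATP in HEPES pH 7.5 with Mg/Mn, 60 min at room temperature, then development 60 min at 23 °C. Compounds tested at 11 concentrations from 10 μM to 0.17 nM in 1% DMSO. IC50 from 4-parameter fit of inhibition.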

PDGFRB = target: T2, PDGFRB (Homo sapiens, UniProt P09619); experiment: Z'-LYTE in vitro enzyme activity assay, PDGFRB; conditions: 100 μM ATP, 60 minutes, room temperature; read-out: IC50 detected by Z'-LYTE, PDGFRB
T2 construct: purchased Millipore
T2 sequence (P09619 33-1106): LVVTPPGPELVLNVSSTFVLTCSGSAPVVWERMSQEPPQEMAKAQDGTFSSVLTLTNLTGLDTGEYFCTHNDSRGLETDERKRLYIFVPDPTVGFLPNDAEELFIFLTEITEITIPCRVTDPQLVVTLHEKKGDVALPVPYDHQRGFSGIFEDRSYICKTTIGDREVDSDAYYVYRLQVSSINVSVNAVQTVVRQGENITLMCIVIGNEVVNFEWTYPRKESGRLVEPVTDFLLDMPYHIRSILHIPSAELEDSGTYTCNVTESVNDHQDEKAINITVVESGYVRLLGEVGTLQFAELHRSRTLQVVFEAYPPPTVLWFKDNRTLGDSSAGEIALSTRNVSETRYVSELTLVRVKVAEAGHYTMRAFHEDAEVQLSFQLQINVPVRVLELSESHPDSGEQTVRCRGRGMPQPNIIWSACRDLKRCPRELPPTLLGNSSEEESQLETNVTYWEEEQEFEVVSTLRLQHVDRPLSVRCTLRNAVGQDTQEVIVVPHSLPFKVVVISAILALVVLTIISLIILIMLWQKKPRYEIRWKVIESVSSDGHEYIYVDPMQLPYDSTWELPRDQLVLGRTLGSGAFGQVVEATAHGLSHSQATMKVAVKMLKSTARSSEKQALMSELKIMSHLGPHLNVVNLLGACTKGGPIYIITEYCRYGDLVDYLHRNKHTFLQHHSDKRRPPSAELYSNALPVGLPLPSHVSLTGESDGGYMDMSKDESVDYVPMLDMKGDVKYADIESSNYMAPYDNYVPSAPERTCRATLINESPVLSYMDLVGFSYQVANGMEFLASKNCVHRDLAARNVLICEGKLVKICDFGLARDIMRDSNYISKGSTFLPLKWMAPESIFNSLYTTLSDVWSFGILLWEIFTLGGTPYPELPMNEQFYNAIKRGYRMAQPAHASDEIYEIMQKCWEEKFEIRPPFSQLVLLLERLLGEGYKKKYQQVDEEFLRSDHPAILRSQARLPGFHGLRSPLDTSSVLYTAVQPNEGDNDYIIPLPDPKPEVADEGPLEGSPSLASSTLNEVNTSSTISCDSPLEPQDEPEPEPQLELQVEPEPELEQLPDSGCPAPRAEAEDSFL
Summary of the method: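 Z′-LYTE FRET kinase assay using 40 nM PDGFRB, 2 μM Tyr4 peptide and 100 μM ATP in HEPES pH 7.5 with Mg2+/Mn2+ and 1% DMSO. The reaction ran 60 min at room temperature, followed by development for 60 min at 23 °C. IC50 values came from 4-parameter fits over 11 concentrations (10 μM–0.17 nM).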

VEGFR2 = target: T3, VEGFR2 (Homo sapiens, UniProt P35968); experiment: Z'-LYTE in vitro enzyme activity assay, VEGFR2; conditions: 100 μM ATP, 60 minutes, room temperature; read-out: IC50 detected by Z'-LYTE, VEGFR2
T3 construct: purchased Life technology
T3 sequence (P35968 20-1356): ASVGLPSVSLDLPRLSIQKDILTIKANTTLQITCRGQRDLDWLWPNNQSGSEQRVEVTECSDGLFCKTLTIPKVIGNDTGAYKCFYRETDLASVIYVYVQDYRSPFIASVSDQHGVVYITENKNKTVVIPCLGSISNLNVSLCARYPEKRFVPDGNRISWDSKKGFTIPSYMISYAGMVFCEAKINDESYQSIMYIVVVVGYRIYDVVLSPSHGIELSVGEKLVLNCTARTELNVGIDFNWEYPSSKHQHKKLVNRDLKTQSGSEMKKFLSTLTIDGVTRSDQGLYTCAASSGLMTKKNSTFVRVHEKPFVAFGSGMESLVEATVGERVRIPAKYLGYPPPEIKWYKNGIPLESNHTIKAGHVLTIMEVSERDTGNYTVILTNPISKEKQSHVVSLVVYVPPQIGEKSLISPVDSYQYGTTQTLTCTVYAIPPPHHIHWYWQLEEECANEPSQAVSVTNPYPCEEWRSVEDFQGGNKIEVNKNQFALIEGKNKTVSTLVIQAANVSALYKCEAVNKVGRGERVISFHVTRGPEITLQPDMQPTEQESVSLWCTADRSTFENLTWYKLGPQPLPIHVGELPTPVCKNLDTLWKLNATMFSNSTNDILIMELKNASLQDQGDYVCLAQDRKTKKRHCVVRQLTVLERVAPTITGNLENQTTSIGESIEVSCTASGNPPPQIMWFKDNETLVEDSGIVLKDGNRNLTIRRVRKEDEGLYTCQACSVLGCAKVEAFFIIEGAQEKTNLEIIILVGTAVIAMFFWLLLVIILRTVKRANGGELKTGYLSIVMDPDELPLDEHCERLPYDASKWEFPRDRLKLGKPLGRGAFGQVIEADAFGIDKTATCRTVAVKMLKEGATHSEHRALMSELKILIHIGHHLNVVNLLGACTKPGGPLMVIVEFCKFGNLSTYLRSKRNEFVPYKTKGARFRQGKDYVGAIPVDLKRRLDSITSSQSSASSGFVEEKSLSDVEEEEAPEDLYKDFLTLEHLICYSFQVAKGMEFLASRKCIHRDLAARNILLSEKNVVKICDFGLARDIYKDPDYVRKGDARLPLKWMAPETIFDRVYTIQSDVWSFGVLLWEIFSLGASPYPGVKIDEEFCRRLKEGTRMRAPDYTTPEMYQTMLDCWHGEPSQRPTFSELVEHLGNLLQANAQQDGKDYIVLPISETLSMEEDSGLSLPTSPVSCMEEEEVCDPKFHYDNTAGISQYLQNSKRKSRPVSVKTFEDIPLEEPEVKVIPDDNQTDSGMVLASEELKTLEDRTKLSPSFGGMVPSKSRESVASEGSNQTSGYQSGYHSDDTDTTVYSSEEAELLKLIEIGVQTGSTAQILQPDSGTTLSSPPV
Summary of the method: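 Reaction with 3 nM VEGFR2, 2 μM Tyr1 peptide and 100 μM ATP in HEPES pH 7.5/MgCl2/EGTA/BRIJ-35, 1% DMSO, 60 min at room temperature; development reagent then 60 min at 23° C. Compounds tested at 11 threefold dilutions, 10 μM–0.17 nM final, in duplicate; IC50 from 4-parameter fit of inhibition.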

T1 sequence (P11362 22-822): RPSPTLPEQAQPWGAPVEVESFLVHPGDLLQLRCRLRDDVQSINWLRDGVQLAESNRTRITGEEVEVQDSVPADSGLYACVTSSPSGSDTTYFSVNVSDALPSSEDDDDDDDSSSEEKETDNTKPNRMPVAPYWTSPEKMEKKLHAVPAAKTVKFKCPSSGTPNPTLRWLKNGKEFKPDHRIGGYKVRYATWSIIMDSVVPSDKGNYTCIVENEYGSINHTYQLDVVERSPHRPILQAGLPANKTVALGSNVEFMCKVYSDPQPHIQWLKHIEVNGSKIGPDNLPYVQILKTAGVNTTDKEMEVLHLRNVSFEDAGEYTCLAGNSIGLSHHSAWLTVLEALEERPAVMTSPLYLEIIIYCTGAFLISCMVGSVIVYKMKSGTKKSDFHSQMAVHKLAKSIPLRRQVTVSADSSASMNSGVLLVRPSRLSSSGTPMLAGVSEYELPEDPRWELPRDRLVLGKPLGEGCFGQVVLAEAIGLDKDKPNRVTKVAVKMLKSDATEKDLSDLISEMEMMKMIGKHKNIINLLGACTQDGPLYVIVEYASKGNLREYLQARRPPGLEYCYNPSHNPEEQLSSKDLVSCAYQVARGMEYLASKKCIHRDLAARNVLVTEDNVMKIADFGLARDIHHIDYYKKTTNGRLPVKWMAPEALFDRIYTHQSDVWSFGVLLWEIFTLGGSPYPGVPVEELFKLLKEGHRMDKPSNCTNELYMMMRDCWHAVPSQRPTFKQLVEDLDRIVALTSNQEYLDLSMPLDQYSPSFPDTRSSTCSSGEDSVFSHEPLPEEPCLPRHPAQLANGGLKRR

COc1cc2nccc(Oc3ccc4c(C(=O)NC5CC5)c[nH]c4c3)c2cc1C(N)=O [Example 186]
pIC50 (FGFR1): 6.00 to 6.70
pIC50 (PDGFRB): 6.00 to 6.70
pIC50 (VEGFR2): > 7.30

COc1cc2nccc(Oc3ccc4c(C(=O)N5CC(F)(F)C5)coc4c3)c2cc1C(N)=O [Example 187]
pIC50 (FGFR1): 6.00 to 6.70
pIC50 (PDGFRB): 6.00 to 6.70
pIC50 (VEGFR2): 6.00 to 6.70

COc1cc2nccc(Oc3ccc4c(C(=O)N5CCCC5)c[nH]c4c3)c2cc1C(N)=O [Example 188]
pIC50 (FGFR1): 6.00 to 6.70
pIC50 (PDGFRB): 6.00 to 6.70
pIC50 (VEGFR2): 6.00 to 6.70

COc1cc2nccc(Oc3ccc4c(C(=O)N5CC(F)(F)C5)c[nH]c4c3)c2cc1C(N)=O [Example 189]
pIC50 (FGFR1): 6.00 to 6.70
pIC50 (PDGFRB): 6.00 to 6.70
pIC50 (VEGFR2): 6.00 to 6.70

COc1cc2nccc(Oc3ccc4c(NC(=S)NC5CC5)nn(C)c4c3)c2cc1C(N)=O [Example 193]
pIC50 (FGFR1): 6.00 to 6.70
pIC50 (PDGFRB): 6.70 to 7.30
pIC50 (VEGFR2): 6.00 to 6.70

COc1cc2nccc(Oc3cc(Cl)c4c(C(=O)N5CCCC5)coc4c3)c2cc1C(N)=O [Example 194]
pIC50 (FGFR1): 6.00 to 6.70
pIC50 (PDGFRB): 6.00 to 6.70
pIC50 (VEGFR2): 6.00 to 6.70

COc1cc2nccc(Oc3cc(Cl)c4c(C(=O)N5CC(F)(F)C5)coc4c3)c2cc1C(N)=O [Example 195]
pIC50 (FGFR1): 6.00 to 6.70
pIC50 (PDGFRB): 6.00 to 6.70
pIC50 (VEGFR2): 6.00 to 6.70

COc1cc2nccc(Oc3cc(Cl)c4c(C(=O)NC5CC5)coc4c3)c2cc1C(N)=O [Example 196]
pIC50 (FGFR1): 6.00 to 6.70
pIC50 (PDGFRB): 6.00 to 6.70
pIC50 (VEGFR2): 6.00 to 6.70

COc1cc2nccc(Oc3cc4occ(C(=O)N5CCCC5)c4cc3Cl)c2cc1C(N)=O [Example 197]
pIC50 (FGFR1): 6.00 to 6.70
pIC50 (PDGFRB): 6.00 to 6.70
pIC50 (VEGFR2): 6.00 to 6.70

COc1cc2nccc(Oc3cc4occ(C(=O)N5CC(F)(F)C5)c4cc3Cl)c2cc1C(N)=O [Example 198]
pIC50 (FGFR1): 6.00 to 6.70
pIC50 (PDGFRB): 6.00 to 6.70
pIC50 (VEGFR2): 6.00 to 6.70

COc1cc2nccc(Oc3cc4occ(C(=O)NC5CC5)c4cc3Cl)c2cc1C(N)=O [Example 199]
pIC50 (FGFR1): 6.00 to 6.70
pIC50 (PDGFRB): > 7.30
pIC50 (VEGFR2): 6.70 to 7.30

COc1cc2nccc(Oc3ccc4c(C(=O)N5CC[C@@H](O)C5)coc4c3)c2cc1C(N)=O [Example 201]
pIC50 (FGFR1): 6.00 to 6.70
pIC50 (PDGFRB): 6.00 to 6.70
pIC50 (VEGFR2): 6.00 to 6.70

COc1cc2nccc(Oc3ccc4c(C(=O)N5CC[C@@H](F)C5)coc4c3)c2cc1C(N)=O [Example 202]
pIC50 (FGFR1): 6.00 to 6.70
pIC50 (PDGFRB): 6.00 to 6.70
pIC50 (VEGFR2): 6.00 to 6.70

COc1cc2nccc(Oc3ccc4c(C(=O)N5CC[C@H](O)C5)coc4c3)c2cc1C(N)=O [Example 203]
pIC50 (FGFR1): 6.00 to 6.70
pIC50 (PDGFRB): 6.70 to 7.30
pIC50 (VEGFR2): 6.00 to 6.70

COc1cc2nccc(Oc3cc(Br)c4c(C(=O)N5CC(F)(F)C5)coc4c3)c2cc1C(N)=O [Example 204]
pIC50 (FGFR1): 6.00 to 6.70
pIC50 (PDGFRB): 6.00 to 6.70
pIC50 (VEGFR2): 6.00 to 6.70

COc1cc2nccc(Oc3ccc4c(C(=O)N5CC[C@H](F)C5)coc4c3)c2cc1C(N)=O [Example 205]
pIC50 (FGFR1): 6.00 to 6.70
pIC50 (PDGFRB): 6.00 to 6.70
pIC50 (VEGFR2): 6.00 to 6.70

COc1cc2nccc(Oc3ccc4c(C(=O)N5CCCC5)coc4c3)c2cc1C(N)=O [Example 206]
pIC50 (FGFR1): 6.00 to 6.70
pIC50 (PDGFRB): 6.00 to 6.70
pIC50 (VEGFR2): 6.00 to 6.70

CCNC(=O)c1coc2cc(Oc3ccnc4cc(OC)c(C(N)=O)cc34)c(F)cc12 [Example 208]
pIC50 (FGFR1): 6.00 to 6.70
pIC50 (PDGFRB): > 7.30
pIC50 (VEGFR2): 6.70 to 7.30

[2H]C([2H])([2H])NC(=O)c1coc2cc(Oc3ccnc4cc(OC)c(C(N)=O)cc34)c(Cl)cc12 [Example 211]
pIC50 (FGFR1): 6.00 to 6.70
pIC50 (PDGFRB): > 7.30
pIC50 (VEGFR2): 6.70 to 7.30

Cn1cncc1-c1ccc2c(Oc3ccc(NC(=S)NC4CC4)c(Cl)c3)ccnc2c1 [Example 213]
pIC50 (FGFR1): 6.70 to 7.30
pIC50 (PDGFRB): 6.70 to 7.30
pIC50 (VEGFR2): > 7.30

O=C(Nc1ccc(Oc2ccnc3cc(-c4cncn4-c4ccccc4)ccc23)c(F)c1Cl)NC1CC1 [Example 227]
pIC50 (FGFR1): 6.00 to 6.70
pIC50 (PDGFRB): 6.00 to 6.70
pIC50 (VEGFR2): 6.70 to 7.30

O=C(Nc1ccc(Oc2ccnc3cc(-c4cn(-c5ccccc5)cn4)ccc23)c(F)c1Cl)NC1CC1 [Example 228]
pIC50 (FGFR1): 6.00 to 6.70
pIC50 (PDGFRB): 6.00 to 6.70
pIC50 (VEGFR2): 6.00 to 6.70

Cc1nc(-c2ccc3c(Oc4ccc(NC(=O)NC5CC5)c(Cl)c4F)ccnc3c2)cn1C [Example 229]
pIC50 (FGFR1): > 7.30
pIC50 (PDGFRB): > 7.30
pIC50 (VEGFR2): > 7.30

Source: US10654808B2, “Tyrosine kinase inhibitor and pharmaceutical composition comprising same” (GUANGDONG RAYNOVENT BIOTECH CO., LTD., priority 2015, dated 2020)
